Experimental findings from PubChem BioAssay (NCI) are described below.

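Briefly, cells in 96-well plates were exposed to five compound concentrations for 48 h, and endpoints were estimated by linear interpolation. Here, GI50 denotes the concentration required for 50% inhibition of growth. TGI is the concentration that stops growth completely.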

Assay in all cases: inhibition of tumour cell growth, NCI panel, 48 h
Test [1] relates to PC-3 prostate.
Test [2] concerns 786-0 renal.
The subject of test [3] is EKVX NSCLC.
Test [4] concerns SK-MEL-28 melanoma.
Test [5] relates to NCI-H522 lung.
Test [6] deals with UO-31 renal.
Test [7] relates to CCRF-CEM leukemia.
The subject of test [8] is OVCAR-8 ovarian.
Test [9] relates to BT-549 breast.
Test [10] has as its system HCT-15 colon.

Regarding `O=C(NCc1cn(Cc2cccc(Oc3ccccc3)c2)nn1)c1cccnc1Nc1ccc(F)cc1`, the GI50 in [1] is 20.4 µM; in test [2] it was 23.2 µM; in test [3] it was 25.3 µM; in test [4] it was 7.98 µM; in test [5], 10.8 µM; in test [6], 86.3 µM. Moreover, the GI50 was more than 100 µM in [7], 7.44 µM in test [8] and 45.6 µM in test [9]. Moreover, the TGI in test [1], in test [2], in test [3], in [4], in test [5] and in test [6] was more than 100 µM throughout. For the same compound, the TGI in [7], in test [8] and in test [9] was more than 100 µM each time.
Take `COC(=O)N[C@H]1CCc2cc(OC)c(OC)c(OC)c2-c2ccc(SC)c(=O)cc21`: the GI50 in [1] is less than 0.01 µM; in test [2] it was less than 0.01 µM; in test [3], less than 0.01 µM; in test [4], more than 100 µM; in test [5], less than 0.01 µM; in test [6], less than 0.0447 µM. The GI50 in [7], in test [8], in [9] and in test [10] was less than 0.01 µM throughout. The TGI is more than 100 µM in [1]; more than 100 µM in test [2]; more than 100 µM in test [3]; more than 100 µM in test [4]; more than 19.9 µM in test [5]; more than 100 µM in [6]. For the same compound, the TGI is more than 100 µM in [7], more than 100 µM in [8], 11 µM in [9] and more than 47.3 µM in test [10].
On to `CC(=O)/C(=C\c1ccc(Cl)cc1)c1ccccc1`, for which the GI50 in [1] was 0.0852 µM; in test [2], 0.128 µM; in [3] it was 1.82 µM; in test [4], 2.05 µM; in test [5] it was 0.0745 µM; in test [6], 1.02 µM. Moreover, the GI50 in test [7] is 0.0534 µM; in [8], 0.304 µM; in test [9], 0.107 µM; in test [10], 0.331 µM. For the same compound, the TGI is more than 100 µM in test [1]; more than 100 µM in [2]; more than 100 µM in [3]; more than 100 µM in test [4]; 3.26 µM in test [5]; more than 57.9 µM in test [6]. The TGI in test [7] is more than 100 µM; in test [8], more than 100 µM; in test [9], 0.946 µM; in test [10] it was more than 100 µM.
As to `Cc1c2cnccc2c(C)c2c1c1ccccc1n2CCOC(=O)c1ccccc1`, the TGI in test [1] was more than 100 µM; in test [2] it was 28.6 µM; in [3], 47.9 µM; in test [4], 47.2 µM; in test [5], 31.1 µM; in [6], 15.3 µM. The TGI in test [7] was 64.4 µM; in test [8] it was 26.9 µM; in [9], more than 100 µM; in test [10], 59.2 µM.
As for `Cn1cc(C2NC(=O)c3ccccc3N2)c2ccccc21` (stereo not drawn), the TGI is 0.408 µM in test [1]; more than 100 µM in test [2]; more than 44.1 µM in [3]; more than 100 µM in test [4]; 2.56 µM in test [5]; more than 100 µM in test [6]. The TGI was 0.877 µM in test [7], more than 100 µM in test [8], more than 100 µM in [9] and 8.48 µM in [10].
As to `CC(=O)OCC1C(=O)OCC1C(=O)N1Cc2cc3ccccc3nc2C1` (stereo not drawn), the TGI in test [1] was 20.1 µM; in [2], 3.84 µM; in [3], 17.3 µM; in test [4] it was 7.07 µM; in test [5] it was 2.23 µM; in test [6], 8.15 µM. Further, the TGI in test [7] amounted to 3.79 µM; in test [8], 11.5 µM; in test [9], 6.71 µM; in [10], 6.99 µM.
Turning to `O=c1nc2n(-c3cccc(Cl)c3)c3ccc([N+](=O)[O-])cc3cc-2c(=O)[nH]1`, the GI50 was 6.01 µM in test [1]; 4.49 µM in [2]; 11.9 µM in test [3]; 8.01 µM in test [4]; 7.37 µM in test [5]; 5.87 µM in [6]. The GI50 in test [7] is 2.09 µM; in test [8], 17 µM; in test [9], 4.2 µM; in test [10], 9.28 µM. The TGI in [1] was 15.3 µM; in [2], 9.5 µM; in [3], more than 25 µM; in test [4], more than 25 µM; in [5] it was 21.6 µM; in test [6] it was 13 µM. The TGI is more than 25 µM in test [7], more than 25 µM in [8], 11.8 µM in [9] and more than 25 µM in [10].
`CC(C)=CCc1cc2c(cc1O)C1=C(C(=O)C3=C(NCCS3(=O)=O)C1=O)C(C=C(C)C)O2` (stereo not drawn): the GI50 in test [1] was 5.58 µM; in test [2] it was 9.97 µM; in test [3] it was 6.24 µM; in [4], 3.81 µM; in test [5], 2.93 µM; in test [6], 5.57 µM. The GI50 is 4.53 µM in test [7], 4.75 µM in test [8], 14.1 µM in test [9] and 6.21 µM in [10]. The TGI was more than 16.7 µM in test [1]; more than 16.7 µM in test [2]; more than 16.7 µM in test [3]; 9.84 µM in [4]; 9.09 µM in test [5]; more than 16.7 µM in test [6]. Also, the TGI in test [7], in test [8], in test [9] and in [10] was more than 16.7 µM each time.
Consider `CC1CCCCCC(=O)c2c(O)cc(O)cc2CC(=O)O1` (stereo not drawn), for which the TGI in [1], in [2], in [3], in test [4], in test [5] and in [6] was more than 100 µM each time. The TGI in test [7], in [8], in test [9] and in [10] was more than 100 µM each time.
`COC(=O)[C@@H](C)C[C@H](Cc1ccccc1)NC(=O)c1nc([C@@H](C[C@H](C(C)C)N(C)C(=O)[C@@H](NC(=O)[C@H]2C[C@H](O)CCN2C)C(C)C)OC(C)=O)sc1C(C)C`: the GI50 in test [1] is 0.00391 µM; in [2] it was 0.0337 µM; in test [3] it was 0.161 µM; in test [4], 0.0191 µM; in [5] it was 0.00186 µM; in test [6], 0.504 µM. Moreover, the GI50 in test [7] was 0.00525 µM; in [8] it was 0.0193 µM; in test [9], 0.00416 µM; in [10] it was 0.284 µM. For the same compound, the TGI was more than 11.1 µM in [1]; 4.65 µM in [2]; more than 11.1 µM in [3]; more than 11.1 µM in test [4]; more than 11.1 µM in test [6]; more than 11.1 µM in test [7]. The TGI in [8] is more than 11.1 µM; in test [9], 0.131 µM; in [10], more than 11.1 µM.
Turning to `COC(=O)c1c2c(c(C)[n+]([O-])c1C)C(=O)C(NCc1ccc(OC)cc1)=CC2=O`, the GI50 was 2.31 µM in test [1]; 3.15 µM in test [2]; 1.88 µM in test [3]; 2.95 µM in test [4]; 1.95 µM in test [5]; 2.48 µM in test [6]. Moreover, the GI50 in test [7] is 2.86 µM; in test [8], 2.78 µM; in test [9], 2.96 µM; in test [10] it was 1.64 µM. The TGI is 10.4 µM in test [1]; 18.8 µM in [2]; 4.44 µM in [3]; 11.3 µM in test [4]; 4.73 µM in [5]; 10 µM in test [6]. Moreover, the TGI in test [7] was 12.8 µM; in test [8] it was more than 100 µM; in test [9], 13.3 µM; in [10], 3.72 µM.
As for `C=CC1(C)CCC2C(=CCC3C2(C)CC(O)C(O)C3(C)COC2OC(CO)C(O)C(O)C2O)C1` (stereo not drawn), the TGI in test [1], in [2], in test [3], in [4], in test [5] and in test [6] was more than 100 µM in each case. Moreover, the TGI in test [7], in test [8], in test [9] and in test [10] was more than 100 µM throughout.
`Cn1cc(-c2ccc3nc(-c4ccc(CC(=O)Nc5cc(C(C)(C)C)no5)cc4)cnc3c2)cn1`: the GI50 in [1] was 0.112 µM; in [2], 0.0375 µM; in test [3], 0.143 µM; in test [4], 0.104 µM; in [5], 0.0498 µM; in test [6], 0.0521 µM. The GI50 was 0.692 µM in [7], 0.0548 µM in test [8], 0.206 µM in [9] and 0.0197 µM in test [10]. The TGI in test [1] is more than 3 µM; in test [2], more than 3 µM; in test [3] it was more than 3 µM; in [4], more than 3 µM; in test [5] it was more than 3 µM; in [6], 0.269 µM. The TGI in test [7], in [8], in [9] and in test [10] was more than 3 µM each time.
As to `CC1(C)N=C(N)N=C(N)N1c1ccc(OCCCNC(=O)Nc2ccc(S(=O)(=O)F)cc2)c(Cl)c1`, the GI50 was 0.165 µM in [1]; 0.417 µM in [2]; 0.874 µM in test [3]; 1.74 µM in [4]; 0.79 µM in [5]; 69.5 µM in test [6]. Moreover, the GI50 in test [7] is 0.208 µM; in [8], 0.697 µM; in [9] it was 11.5 µM; in [10] it was 6.62 µM. Besides, the TGI in [1] was more than 73 µM; in test [2], more than 100 µM; in [3] it was more than 100 µM; in [4] it was more than 100 µM; in test [5] it was more than 100 µM; in test [6] it was more than 100 µM. In addition, the TGI in test [7], in test [8], in test [9] and in test [10] was more than 100 µM in each case.
In the case of `Nc1c(C(=O)Nc2cccc(Cl)c2)sc2nc3c(cc12)C(=O)CCC3`, the GI50 in test [1] was 0.528 µM; in test [2], 0.739 µM; in [4], 0.567 µM; in test [5] it was 0.19 µM; in test [7], 0.383 µM; in [8] it was more than 41.3 µM. The GI50 in [9] is 0.948 µM; in [10], 0.411 µM. Also, the TGI is more than 100 µM in test [1]; more than 100 µM in test [2]; more than 100 µM in test [3]; more than 100 µM in [4]; 0.788 µM in [5]; more than 100 µM in test [6]. The TGI in test [7], in [8], in test [9] and in test [10] was more than 100 µM each time.
For `Nc1ccc(/C=C/c2ccc3ncccc3c2)cc1`, the GI50 in test [1] is 7.29 µM; in test [2], more than 100 µM; in test [3], 31.7 µM; in test [4] it was more than 100 µM; in test [5], 19.9 µM; in [6] it was 2.32 µM. In addition, the GI50 is 0.821 µM in test [7], more than 100 µM in test [8], 5.29 µM in [9] and more than 100 µM in [10]. In addition, the TGI in test [1], in test [2], in test [3], in test [4], in [5] and in test [6] was more than 100 µM in each case. Besides, the TGI in [7], in test [8], in [9] and in test [10] was more than 100 µM each time.
As for `CC(C)(C)CC(C)(C)c1ccc(OCCO)cc1`, the GI50 is 3.26 µg/mL in [1]; 10.9 µg/mL in test [2]; 1.34 µg/mL in test [3]; 11.4 µg/mL in [4]; 1.21 µg/mL in [5]; 6.02 µg/mL in [7]. Further, the results for the GI50 in test [8], in test [9] and in [10] were 3.31 µg/mL, 2.49 µg/mL and 7.74 µg/mL, respectively. Moreover, the TGI was 16 µg/mL in test [1]; 33.7 µg/mL in test [2]; 30.1 µg/mL in test [3]; 29.7 µg/mL in test [4]; 11.1 µg/mL in test [5]; 40.1 µg/mL in [7]. The figures for the TGI in test [8], in [9] and in [10] were more than 75 µg/mL, 11.9 µg/mL and 19.3 µg/mL, respectively.
